Tests used:
[1] = Dissolution kinetics in SLF, USP2 apparatus; assay type: physicochemical; settings: SLF pH 7.4, 37° C., 5 mg in 500 mL
Experimental: The dissolution kinetics of the 3 different loading samples described in Example 5 were characterized in SLF (pH 7.4; made up with the salts NaCl, NaHCO3, KCl, MgCl2, CaCl2, Na2SO4, sodium citrate dihydrate, NaH2PO4 (all from Sigma)) at 37° C. using a USP2 dissolution apparatus with stirring speed 50 rpm. Free, unloaded thalidomide was used as control. Concentration of drug at set times after release was measured by a UV/vis spectrometer (Cecil 3021) at 220 nm.
The dose of thalidomide was calculated as 5 mg of thalidomide in 500 mL of SLF.

[2] = Dissolution kinetics in SLF with Tween 80, non-sink conditions; assay type: physicochemical; settings: SLF with 1 wt % Tween 80, 80 mg dosage
Experimental: Given that thalidomide rapidly recrystallizes in solution, an experiment was conducted in the presence of a surfactant to stabilize the dissolved drug.
Tween 80 (1 wt %; Sigma) was added in the dissolution bath in SLF media. The dosage was increased to 80 mg to investigate the dissolution kinetics at high drug concentration, to simulate dissolution in non-sink conditions.

Question: Which “time in which Cmax was achieved” value [1] does the source give for `O=C1CCC(N2C(=O)c3ccccc3C2=O)C(=O)N1` (centres unmarked) [free drug, thalidomide] here?
Answer: 30 min

Question: What about the “time to reach Cmax” value [2] of the same molecule?
Answer: 30 min
